According to US6620818B1, “Method for reducing the severity of side effects of chemotherapy and/or radiation therapy” (priority 2001, dated 2003):

The compounds below were run against CDK1 (Homo sapiens, UniProt P06493) (assay: Cyclin dependent protein kinase assay, CDK1). Details: inhibitory activity against CDK1, baculovirus-expressed enzyme, [γ-32P]ATP peptide phosphorylation.
Assay type: biochemical

Sequence of CDK1 (P06493 whole entry, species assumed): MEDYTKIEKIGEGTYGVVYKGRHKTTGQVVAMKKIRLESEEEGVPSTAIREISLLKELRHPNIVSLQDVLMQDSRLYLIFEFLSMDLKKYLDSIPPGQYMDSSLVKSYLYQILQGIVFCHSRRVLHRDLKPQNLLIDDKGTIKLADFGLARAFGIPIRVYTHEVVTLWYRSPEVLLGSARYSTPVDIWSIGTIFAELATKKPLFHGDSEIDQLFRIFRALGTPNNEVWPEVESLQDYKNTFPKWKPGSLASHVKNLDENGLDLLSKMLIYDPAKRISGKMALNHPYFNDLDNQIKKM
Sequence of CDK1 (P14635 whole entry partner, species assumed): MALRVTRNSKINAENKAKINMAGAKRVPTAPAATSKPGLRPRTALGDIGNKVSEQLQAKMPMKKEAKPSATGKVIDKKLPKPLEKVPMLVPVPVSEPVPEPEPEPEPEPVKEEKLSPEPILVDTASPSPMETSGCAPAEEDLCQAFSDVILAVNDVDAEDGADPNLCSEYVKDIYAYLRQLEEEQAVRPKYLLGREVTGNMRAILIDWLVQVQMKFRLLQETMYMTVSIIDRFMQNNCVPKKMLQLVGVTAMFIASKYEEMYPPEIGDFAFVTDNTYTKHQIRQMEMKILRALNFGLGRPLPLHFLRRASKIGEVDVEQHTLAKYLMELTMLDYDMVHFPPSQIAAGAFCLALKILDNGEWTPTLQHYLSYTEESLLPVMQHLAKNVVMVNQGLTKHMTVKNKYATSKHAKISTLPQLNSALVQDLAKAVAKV

Q: `CC(C)(CO)CNS(=O)(=O)c1ccc(NC=C2C(=O)Nc3ccc4ncsc4c32)cc1` [Compound A1] was tested. Which IC50 did it give?
A: 1 to 10 nM

Q: For `O=C1Nc2ccc3ncsc3c2C1=CNc1ccc(S(=O)(=O)Nc2ccccn2)cc1` [Compound A2], which IC50 is on record?
A: 51 to 100 nM

Q: `O=C1Nc2ccc3ncsc3c2C1=CNc1ccc(S(=O)(=O)NCc2ccncc2)cc1` [Compound A3] was tested. Which IC50 did it give?
A: 11 to 50 nM
